Test results published in US20250136722A1, “CYTOTOXICITY TARGETING CHIMERAS” (GLAXOSMITHKLINE INTELLECTUAL PROPERTY DEVELOPMENT LIMITED, priority 2021, published 2025).
“And” between values parts separate entries of the source, which are not always exact repeats. Identical values can stand only once.

Experiments:
[1] = target: T1, CHOK1 cells engineered to overexpress human CCR2 (Homo sapiens, UniProt P41597); test: Antibody dependent cellular cytotoxicity (ADCC) reporter assay (Example 199); format: cell-based; settings: with anti-cotinine antibody SEQ ID NO: 11/12; CHOK1-human CCR2 target cells, Jurkat FcγRIIIa NFAT-luciferase reporter cells; 12-18 hours; read-out: ADCC Reporter Assay pEC50 (converted)
T1 construct: expressed in transfected cells; host or cells: CHOK1 cells
Summary of the method: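 Potency is reported as pEC50 from a nonlinear fit, averaged over runs, using luciferase signal divided by that of compound-free wells. The readout comes from NFAT-luciferase Jurkat cells expressing FcγRIIIa, mixed for 12–18 h with human CCR2-overexpressing CHOK1 cells, 1 pM–10 μM ARM compound and 0.01–200 μg/mL Fc-enhanced anti-cotinine IgG1.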

[2] = target: Anti-cotinine antibody (SEQ ID NO: 11 / SEQ ID NO: 12, rabbit variable region with human IgG1 Fc domain); test: Binding of anti-cotinine antibody to ARM compounds by SPR, Biacore T200, 37° C. (Example 202); settings: pH 7.4, rabbit variable region/human IgG1 Fc antibody captured on protein A
Summary of the method: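 Run at 37° C. in 10 mM HEPES pH 7.4, 150 mM NaCl, 0.005% P20, 1% DMSO. Compound titrated from 200 nM (five 3-fold steps) over protein A-captured antibody, with 200/2000 s association/dissociation. 1:1 kinetic fit gave kon, koff, Kd and residence time (1/koff); pKd averaged where runs repeated.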

[3] = target: human alpha1 nicotinic acetylcholine (nACh) receptor (Homo sapiens, UniProt P02708+Q07001); test: Nicotinic acetylcholine receptor antagonism assay, IONFlux automated patch clamp (Example 203); format: cell-based; settings: for IC50: nAChR antagonism, ACh stimulated, patch clamp; for Emax at 10 µM: maximum percentage antagonism at maximum concentration tested 10 μM
Summary of the method: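 Human α1 nAChR-expressing cells were preincubated with compound (top 10 μM or 100 μM), then stimulated with 10 mM ACh; peak currents were recorded by IONFlux automated patch clamp. Percent inhibition versus ACh-alone control was vehicle- and rundown-corrected, then fitted to give IC50, with maximal antagonism at the top concentration; recordings with control current <500 pA were excluded.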

Sequence of human alpha1 nicotinic acetylcholine (nACh) receptor (P02708 21-457): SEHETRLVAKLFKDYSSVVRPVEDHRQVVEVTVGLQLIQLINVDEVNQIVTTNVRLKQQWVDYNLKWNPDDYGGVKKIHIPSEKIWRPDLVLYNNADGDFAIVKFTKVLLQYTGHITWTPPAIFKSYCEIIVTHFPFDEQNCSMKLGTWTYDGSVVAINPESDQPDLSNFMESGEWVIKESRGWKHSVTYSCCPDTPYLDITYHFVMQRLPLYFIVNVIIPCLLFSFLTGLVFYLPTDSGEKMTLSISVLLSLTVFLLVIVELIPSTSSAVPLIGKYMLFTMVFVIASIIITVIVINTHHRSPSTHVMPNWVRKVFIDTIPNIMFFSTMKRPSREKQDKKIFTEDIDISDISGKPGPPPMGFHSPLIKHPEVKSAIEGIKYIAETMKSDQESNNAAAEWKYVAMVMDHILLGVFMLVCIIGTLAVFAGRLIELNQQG
Sequence of human alpha1 nicotinic acetylcholine (nACh) receptor (P11230 24-501 partner): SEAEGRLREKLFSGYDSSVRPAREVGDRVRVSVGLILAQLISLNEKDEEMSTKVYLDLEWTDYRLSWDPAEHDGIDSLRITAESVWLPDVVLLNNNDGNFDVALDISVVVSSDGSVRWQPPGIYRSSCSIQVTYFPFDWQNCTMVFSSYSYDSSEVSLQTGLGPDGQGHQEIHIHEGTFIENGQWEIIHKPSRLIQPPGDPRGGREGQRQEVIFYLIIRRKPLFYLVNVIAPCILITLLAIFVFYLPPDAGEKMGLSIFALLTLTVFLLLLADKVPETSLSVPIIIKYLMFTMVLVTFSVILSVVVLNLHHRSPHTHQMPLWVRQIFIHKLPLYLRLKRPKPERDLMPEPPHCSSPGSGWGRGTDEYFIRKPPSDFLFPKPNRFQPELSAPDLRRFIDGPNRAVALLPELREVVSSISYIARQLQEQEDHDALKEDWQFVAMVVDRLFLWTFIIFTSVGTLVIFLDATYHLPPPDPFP
Sequence of human alpha1 nicotinic acetylcholine (nACh) receptor (Q07001 22-517): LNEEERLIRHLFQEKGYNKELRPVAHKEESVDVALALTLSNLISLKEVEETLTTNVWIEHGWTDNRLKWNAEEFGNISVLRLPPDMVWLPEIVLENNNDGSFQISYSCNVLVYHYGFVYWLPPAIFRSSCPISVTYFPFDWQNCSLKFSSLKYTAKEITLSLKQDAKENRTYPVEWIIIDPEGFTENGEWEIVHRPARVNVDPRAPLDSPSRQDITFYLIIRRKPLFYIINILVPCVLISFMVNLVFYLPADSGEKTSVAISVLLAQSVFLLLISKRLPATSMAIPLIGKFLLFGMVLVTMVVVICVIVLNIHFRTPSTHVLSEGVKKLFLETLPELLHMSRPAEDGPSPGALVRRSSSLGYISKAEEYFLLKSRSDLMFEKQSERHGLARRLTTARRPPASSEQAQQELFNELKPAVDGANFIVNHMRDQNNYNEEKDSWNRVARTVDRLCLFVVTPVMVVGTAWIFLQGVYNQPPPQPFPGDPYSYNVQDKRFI

pKd of Antibody for ARM Compound of Formula (I) [2] | IC50 [3] [nM] | Emax at 33.33 µM ([3]; maximum percentage antagonism at maximum concentration tested 33.33 μM, read-out: Maximum Response (%)) [%] | Emax at 10 µM ([3]; read-out: Maximum Response (%)) [%] | SMILES | EC50 [1] | Emax at 100 µM ([3]; maximum percentage antagonism at maximum concentration tested 100 μM, read-out: Maximum Response (%)) [%]
9.199 | > 33300 | 48 | – | CN1C(=O)C[C@H](C(=O)NCCO[C@H]2CC[C@H](OCCCC(=O)N[C@H]3CC[C@H](C(=O)N[C@@H]4C[C@H](NC(C)(C)C)CC[C@@H]4N4CC[C@H](Nc5ncnc6ccc(C(F)(F)F)cc56)C4=O)CC3)CC2)[C@H]1c1cccnc1 [Example 10] | 3.16 nM | –
9.7475 | > 10000 | – | 7.3 | CN1C(=O)C[C@H](C(=O)NCCOCCOCCOCCOCCOCCC(=O)N[C@@H]2C[C@H](NC(C)(C)C)CC[C@@H]2N2CC[C@H](Nc3ncnc4ccc(C(F)(F)F)cc34)C2=O)[C@H]1c1cccnc1 [Example 37] | – | –
9.611 | > 10000 | – | -2.2 | CN1C(=O)C[C@H](C(=O)NCCOCCOCCOCCOCCOCCOCCC(=O)N[C@@H]2C[C@H](NC(C)(C)C)CC[C@@H]2N2CC[C@H](Nc3ncnc4ccc(C(F)(F)F)cc34)C2=O)[C@H]1c1cccnc1 [Example 38] | – | –

SMILES | pKd of Antibody for ARM Compound of Formula (I) [2] | IC50 [3] [nM] | Emax at 33.33 µM ([3]; maximum percentage antagonism at maximum concentration tested 33.33 μM, read-out: Maximum Response (%)) [%] | Emax at 10 µM ([3]; read-out: Maximum Response (%)) [%] | EC50 [1] | Emax at 100 µM ([3]; maximum percentage antagonism at maximum concentration tested 100 μM, read-out: Maximum Response (%)) [%]
CC(C)N(C)[C@@H]1CC[C@H](N2CC[C@H](Nc3ncnc4ccc(C(F)(F)F)cc34)C2=O)[C@H](NC(=O)[C@H]2CC[C@H](NC(=O)CCCO[C@H]3CC[C@H](OCCNC(=O)[C@H]4CC(=O)N(C)[C@@H]4c4cccnc4)CC3)CC2)C1 [Example 1, (2S,3S)-N-(2-(((1R,4S)-4-(4-(((1R,4R)-4-(((1R,2S,5R)-5-(Isopropyl(methyl)amino)-2-((S)-2-oxo-3-((6-(trifluoromethyl)quinazolin-4-yl)amino)pyrrolidin-1-yl)cyclohexyl)carbamoyl)cyclohexyl)amino)-4-oxobutoxy)cyclohexyl)oxy)ethyl)-1-methyl-5-oxo-2-(pyridin-3-yl)pyrrolidine-3-carboxamide] | 9.654 | 84600 | – | – | 3.25 nM and 6.61 nM | 25.6
